The values below come from ChEMBL document CHEMBL1201862, “PubChem BioAssay data set” (2004).

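Compound exposure: 48 hours, 5 concentrations, 96-well plates. GI50 is the concentration that inhibits growth by half.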 Active and inactive are the calls of the source. Rule as the data show it: active = GI50 up to about 1.1 µM and inactive = higher.

Some test systems named below: 786-0; CCRF-CEM; COLO 205; HCT-15; HOP-92; HT-29; LOX IMVI; MDA-MB-435; Malme-3M; NCI/ADR-RES; OVCAR-5; OVCAR-8; RXF 393; SF-295; SK-MEL-2; SK-MEL-5; SN12C; SNB-19; UACC-257; UACC-62.
Common to all, as to assay: DTP human tumour cell line panel, 48 h

Broadly, the GI50 is the concentration at which growth is held to half of that of the control. In the case of `c1cncc(CSc2ncnc3[nH]cnc23)c1`, the GI50 was > 100 µM (inactive) in the test on 786-0; > 100 µM (inactive) in the test on CCRF-CEM; > 100 µM (inactive) in the test with COLO 205; > 100 µM with HCT-15; > 100 µM (inactive) in the test on HOP-92; > 100 µM (inactive) with HT-29. For the same molecule, the GI50 with LOX IMVI, with MDA-MB-435, in the test with Malme-3M, in the test with NCI/ADR-RES, in the test with OVCAR-5 and in the test on OVCAR-8 was > 100 µM (inactive) in each case. The GI50 with RXF 393, in the test with SF-295, with SK-MEL-2, in the test with SK-MEL-5, in the test on SN12C and with SNB-19 was > 100 µM (inactive) throughout. Moreover, the GI50 in the test with UACC-257 and in the test on UACC-62 was > 100 µM (inactive) each time.
